Measured values: publication PMC5673308, “Two single-point mutations shift the ligand selectivity of a pheromone receptor between two closely related moth species” (eLife, 2017)
Positions count from the first letter of the chain named.

Legend:
Assay in all cases: two-electrode voltage clamp, Xenopus oocytes
Assay type in all cases: cell-based
Details in all cases: holding potential −80 mV, pH 7.5, agonist
HassOr6/HassOrco = molecular target: T1, HassOr6/HassOrco (Helicoverpa assulta, UniProt R4JLZ7)
T1 construct: gene OR6; full-length Or6, pCS2+ vector, cRNA co-injected with Orco in Xenopus laevis oocytes; with Odorant receptor coreceptor
T1 sequence (R4JLZ7 1-425): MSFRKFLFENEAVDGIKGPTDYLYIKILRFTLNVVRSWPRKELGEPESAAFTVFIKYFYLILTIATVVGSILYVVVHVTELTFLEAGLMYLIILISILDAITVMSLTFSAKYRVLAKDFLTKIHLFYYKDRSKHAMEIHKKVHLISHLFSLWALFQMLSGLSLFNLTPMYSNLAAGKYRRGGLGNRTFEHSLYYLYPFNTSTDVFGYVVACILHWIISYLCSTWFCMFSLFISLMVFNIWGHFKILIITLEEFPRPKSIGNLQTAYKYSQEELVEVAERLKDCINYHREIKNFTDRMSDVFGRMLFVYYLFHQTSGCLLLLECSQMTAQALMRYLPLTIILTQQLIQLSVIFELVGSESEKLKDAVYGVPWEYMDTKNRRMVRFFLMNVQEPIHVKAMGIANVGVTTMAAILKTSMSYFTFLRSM
T1 sequence (A7UGE1 1-473 partner): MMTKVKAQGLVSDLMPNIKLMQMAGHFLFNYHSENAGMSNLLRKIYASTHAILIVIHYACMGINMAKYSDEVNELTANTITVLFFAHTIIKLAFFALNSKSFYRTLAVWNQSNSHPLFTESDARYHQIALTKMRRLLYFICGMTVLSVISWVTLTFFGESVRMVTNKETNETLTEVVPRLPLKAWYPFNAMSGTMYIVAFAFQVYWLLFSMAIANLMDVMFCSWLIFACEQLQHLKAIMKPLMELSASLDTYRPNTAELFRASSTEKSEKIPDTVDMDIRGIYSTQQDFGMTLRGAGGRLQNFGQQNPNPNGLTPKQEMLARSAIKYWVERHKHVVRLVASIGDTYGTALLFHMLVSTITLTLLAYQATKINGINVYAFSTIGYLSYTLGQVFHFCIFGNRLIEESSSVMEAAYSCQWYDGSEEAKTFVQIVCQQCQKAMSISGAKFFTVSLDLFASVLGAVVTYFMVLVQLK

HarmOr14b/HarmOrco = molecular target: T2, HarmOr14b/HarmOrco (Helicoverpa armigera, UniProt R4JUU3)
T2 construct: gene OR14b; full-length Or14b, pCS2+ vector, cRNA co-injected with Orco in Xenopus laevis oocytes; with Odorant receptor coreceptor
T2 sequence (R4JUU3 1-440): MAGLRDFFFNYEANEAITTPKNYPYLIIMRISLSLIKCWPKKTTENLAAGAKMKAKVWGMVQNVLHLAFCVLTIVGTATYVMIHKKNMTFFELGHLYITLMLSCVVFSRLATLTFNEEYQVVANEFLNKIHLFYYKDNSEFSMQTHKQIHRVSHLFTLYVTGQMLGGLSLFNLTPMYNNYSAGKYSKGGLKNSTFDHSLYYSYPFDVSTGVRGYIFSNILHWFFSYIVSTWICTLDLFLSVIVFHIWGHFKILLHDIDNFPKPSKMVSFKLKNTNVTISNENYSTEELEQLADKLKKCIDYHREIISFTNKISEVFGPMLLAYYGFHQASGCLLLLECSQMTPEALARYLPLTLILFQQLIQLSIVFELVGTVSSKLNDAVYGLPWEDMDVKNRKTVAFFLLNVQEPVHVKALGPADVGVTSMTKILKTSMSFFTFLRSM
T2 sequence (A0A075TD45 1-473 partner): T1 sequence (A7UGE1 1-473 partner) with V55F

HassOr16/HassOrco = molecular target: T3, HassOr16/HassOrco (Helicoverpa assulta, UniProt C6K7C1)
T3 construct: full-length Or16, pCS2+ vector, cRNA co-injected with Orco in Xenopus laevis oocytes; with Odorant receptor coreceptor
T3 sequence (C6K7C1 1-422): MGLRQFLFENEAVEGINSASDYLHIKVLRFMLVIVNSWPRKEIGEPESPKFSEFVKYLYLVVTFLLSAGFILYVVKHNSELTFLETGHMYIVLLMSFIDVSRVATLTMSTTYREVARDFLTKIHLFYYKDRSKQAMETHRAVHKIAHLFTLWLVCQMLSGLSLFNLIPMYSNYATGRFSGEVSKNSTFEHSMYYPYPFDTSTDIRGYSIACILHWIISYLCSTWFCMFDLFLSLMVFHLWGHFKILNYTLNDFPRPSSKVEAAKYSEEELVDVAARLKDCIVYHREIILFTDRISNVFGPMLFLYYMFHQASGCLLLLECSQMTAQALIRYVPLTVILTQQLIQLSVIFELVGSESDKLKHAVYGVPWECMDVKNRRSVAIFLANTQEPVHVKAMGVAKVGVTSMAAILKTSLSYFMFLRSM
T3 sequence (A7UGE1 1-473 partner): T1 sequence (A7UGE1 1-473 partner)

Question: CCCCCC/C=C\CCCCCCCCO [Z9-16:OH, (Z)−9-hexadecenol] was tested. Which “inward current at 10^-4 M” value (HassOr6/HassOrco) did it give?
Answer: HassOr6 is mainly tuned to Z9-16:OH

Question: Which “inward current at 10^-4 M” value (HarmOr14b/HarmOrco) does the source give for CCCCCC/C=C\CCCCCCCC=O [Z9-16:Ald, (Z)−9-hexadecenal] here?
Answer: HarmOr14b is specifically tuned to Z9-14:Ald, and also weakly responds to Z9-16:Ald

Question: Which “inward current at 10^-4 M” value (HarmOr14b/HarmOrco) does the source give for CCCC/C=C\CCCCCCCC=O [Z9-14:Ald, (Z)−9-tetradecenal] here?
Answer: HarmOr14b is specifically tuned to Z9-14:Ald

Question: What about the “inward current at 10^-4 M” value (HassOr16/HassOrco) of the same molecule?
Answer: HassOr16 is specific for Z9-14:Ald
